In ChEMBL document CHEMBL3885881, “DrugMatrix”:

Species: Rattus norvegicus
Assay: DrugMatrix - Regimen: Daily Repeat
Assay type: toxicity, organism-based, Sprague-Dawley
Design: regimen Daily Repeat, gender Male, age 6-8 weeks
Conditions: in vivo, po, route oral GAVAGE, vehicle .5 % CMC; for BASOPHIL / EOSINOPHIL / ERYTHROCYTE COUNT / HEMATOCRIT / HEMOGLOBIN / LEUKOCYTE COUNT / LYMPHOCYTE / MEAN CORPUSCULAR HEMOGLOBIN / MEAN CORPUSCULAR HEMOGLOBIN CONCENTRATION / MEAN CORPUSCULAR VOLUME / NEUTROPHIL / PLATELET COUNT: tissue Blood; for ALANINE AMINOTRANSFERASE / ALBUMIN / ALKALINE PHOSPHATASE / ASPARTATE AMINOTRANSFERASE / BLOOD UREA NITROGEN / CHLORIDE / CHOLESTEROL / CREATINE PHOSPHOKINASE / CREATININE / GLUCOSE / PHOSPHORUS / POTASSIUM / SODIUM / TOTAL BILIRUBIN / TOTAL PROTEIN: tissue Plasma
[1] = 0 mg/kg, 72 h, dose level Control, time 3 day
[2] = 0 mg/kg, 120 h, dose level Control, time 5 day
[3] = 22 mg/kg, 72 h, dose level High, time 3 day
[4] = 22 mg/kg, 120 h, dose level High, time 5 day
[5] = […], 72 h, dose 2.4 mg/Kg, dose level Low, time 3 day
[6] = […], 120 h, dose 2.4 mg/Kg, dose level Low, time 5 day

Compound: Cc1nc2n(c(=O)c1CCN1CCC(c3noc4cc(F)ccc34)CC1)CCCC2 [RISPERIDONE]
- BASOPHIL [1]: 0%
- EOSINOPHIL [1]: 0%
- ERYTHROCYTE COUNT [1]: 6.19 x10E6/uL
- HEMATOCRIT [1]: 36.94%
- HEMOGLOBIN [1]: 14.58 G/DL
- LEUKOCYTE COUNT [1]: 11.54 x10E3/uL
- LYMPHOCYTE [1]: 84.8%
- MEAN CORPUSCULAR HEMOGLOBIN [1]: 23.58 pg
- MEAN CORPUSCULAR HEMOGLOBIN CONCENTRATION [1]: 39.44 G/DL
- MEAN CORPUSCULAR VOLUME [1]: 59.76 fL
- NEUTROPHIL [1]: 13.8%
- PLATELET COUNT [1]: 1068.8 x10E3/uL
- ALANINE AMINOTRANSFERASE [1]: 38.17 u/L
- ALBUMIN [1]: 3.88 G/DL
- ALKALINE PHOSPHATASE [1]: 391.33 u/L
- ASPARTATE AMINOTRANSFERASE [1]: 69.83 u/L
- BLOOD UREA NITROGEN [1]: 15 mg/dL
- CHLORIDE [1]: 104.17 MEQ/L
- CHOLESTEROL [1]: 72.17 mg/dL
- CREATINE PHOSPHOKINASE [1]: 174.33 u/L
- CREATININE [1]: 0.58 mg/dL
- GLUCOSE [1]: 192.67 mg/dL
- PHOSPHORUS [1]: 10.52 mg/dL
- POTASSIUM [1]: 6.8 MEQ/L
- SODIUM [1]: 149.67 MEQ/L
- TOTAL BILIRUBIN [1]: 0.78 mg/dL
- TOTAL PROTEIN [1]: 6.28 G/DL
- BASOPHIL [2]: 0%
- EOSINOPHIL [2]: 0.17%
- ERYTHROCYTE COUNT [2]: 6.72 x10E6/uL
- HEMATOCRIT [2]: 40.02%
- HEMOGLOBIN [2]: 15.83 G/DL
- LEUKOCYTE COUNT [2]: 9.5 x10E3/uL
- LYMPHOCYTE [2]: 87.17%
- MEAN CORPUSCULAR HEMOGLOBIN [2]: 23.57 pg
- MEAN CORPUSCULAR HEMOGLOBIN CONCENTRATION [2]: 39.62 G/DL
- MEAN CORPUSCULAR VOLUME [2]: 59.55 fL
- NEUTROPHIL [2]: 11%
- PLATELET COUNT [2]: 1053.67 x10E3/uL
- ALANINE AMINOTRANSFERASE [2]: 26.33 u/L
- ALBUMIN [2]: 4.02 G/DL
- ALKALINE PHOSPHATASE [2]: 316.67 u/L
- ASPARTATE AMINOTRANSFERASE [2]: 61.33 u/L
- BLOOD UREA NITROGEN [2]: 18.67 mg/dL
- CHLORIDE [2]: 108 MEQ/L
- CHOLESTEROL [2]: 65.17 mg/dL
- CREATINE PHOSPHOKINASE [2]: 161.17 u/L
- CREATININE [2]: 0.75 mg/dL
- GLUCOSE [2]: 177.33 mg/dL
- PHOSPHORUS [2]: 9.72 mg/dL
- POTASSIUM [2]: 6.18 MEQ/L
- SODIUM [2]: 150.5 MEQ/L
- TOTAL BILIRUBIN [2]: 0.68 mg/dL
- TOTAL PROTEIN [2]: 6.55 G/DL
- BASOPHIL [3]: 0%
- EOSINOPHIL [3]: 0%
- ERYTHROCYTE COUNT [3]: 6.13 x10E6/uL
- HEMATOCRIT [3]: 38.1%
- HEMOGLOBIN [3]: 15.27 G/DL
- LEUKOCYTE COUNT [3]: 13.67 x10E3/uL
- LYMPHOCYTE [3]: 90%
- MEAN CORPUSCULAR HEMOGLOBIN [3]: 24.93 pg
- MEAN CORPUSCULAR HEMOGLOBIN CONCENTRATION [3]: 40.1 G/DL
- MEAN CORPUSCULAR VOLUME [3]: 62.17 fL
- NEUTROPHIL [3]: 7.67%
- PLATELET COUNT [3]: 999.33 x10E3/uL
- ALANINE AMINOTRANSFERASE [3]: 31.33 u/L
- ALBUMIN [3]: 3.77 G/DL
- ALKALINE PHOSPHATASE [3]: 390.33 u/L
- ASPARTATE AMINOTRANSFERASE [3]: 54 u/L
- BLOOD UREA NITROGEN [3]: 13.67 mg/dL
- CHLORIDE [3]: 103.67 MEQ/L
- CHOLESTEROL [3]: 59 mg/dL
- CREATINE PHOSPHOKINASE [3]: 158.67 u/L
- CREATININE [3]: 0.6 mg/dL
- GLUCOSE [3]: 179 mg/dL
- PHOSPHORUS [3]: 10.93 mg/dL
- POTASSIUM [3]: 6.37 MEQ/L
- SODIUM [3]: 148.67 MEQ/L
- TOTAL BILIRUBIN [3]: 0.6 mg/dL
- TOTAL PROTEIN [3]: 5.97 G/DL
- BASOPHIL [4]: 0%
- EOSINOPHIL [4]: 0.33%
- ERYTHROCYTE COUNT [4]: 6.82 x10E6/uL
- HEMATOCRIT [4]: 40.93%
- HEMOGLOBIN [4]: 16.13 G/DL
- LEUKOCYTE COUNT [4]: 11.33 x10E3/uL
- LYMPHOCYTE [4]: 91.67%
- MEAN CORPUSCULAR HEMOGLOBIN [4]: 23.67 pg
- MEAN CORPUSCULAR HEMOGLOBIN CONCENTRATION [4]: 39.47 G/DL
- MEAN CORPUSCULAR VOLUME [4]: 60 fL
- NEUTROPHIL [4]: 6.67%
- PLATELET COUNT [4]: 1104.33 x10E3/uL
- ALANINE AMINOTRANSFERASE [4]: 28.33 u/L
- ALBUMIN [4]: 4.03 G/DL
- ALKALINE PHOSPHATASE [4]: 320.33 u/L
- ASPARTATE AMINOTRANSFERASE [4]: 53.33 u/L
- BLOOD UREA NITROGEN [4]: 15.33 mg/dL
- CHLORIDE [4]: 106 MEQ/L
- CHOLESTEROL [4]: 70 mg/dL
- CREATINE PHOSPHOKINASE [4]: 145.33 u/L
- CREATININE [4]: 0.63 mg/dL
- GLUCOSE [4]: 170.67 mg/dL
- PHOSPHORUS [4]: 10.97 mg/dL
- POTASSIUM [4]: 6.6 MEQ/L
- SODIUM [4]: 151.67 MEQ/L
- TOTAL BILIRUBIN [4]: 0.7 mg/dL
- TOTAL PROTEIN [4]: 6.6 G/DL
- BASOPHIL [5]: 0%
- EOSINOPHIL [5]: 0%
- ERYTHROCYTE COUNT [5]: 5.99 x10E6/uL
- HEMATOCRIT [5]: 36.13%
- HEMOGLOBIN [5]: 14.37 G/DL
- LEUKOCYTE COUNT [5]: 11.03 x10E3/uL
- LYMPHOCYTE [5]: 90%
- MEAN CORPUSCULAR HEMOGLOBIN [5]: 23.97 pg
- MEAN CORPUSCULAR HEMOGLOBIN CONCENTRATION [5]: 39.77 G/DL
- MEAN CORPUSCULAR VOLUME [5]: 60.27 fL
- NEUTROPHIL [5]: 9%
- PLATELET COUNT [5]: 1243 x10E3/uL
- ALANINE AMINOTRANSFERASE [5]: 32 u/L
- ALBUMIN [5]: 3.73 G/DL
- ALKALINE PHOSPHATASE [5]: 332.67 u/L
- ASPARTATE AMINOTRANSFERASE [5]: 58 u/L
- BLOOD UREA NITROGEN [5]: 11.33 mg/dL
- CHLORIDE [5]: 103.67 MEQ/L
- CHOLESTEROL [5]: 65.67 mg/dL
- CREATINE PHOSPHOKINASE [5]: 164.67 u/L
- CREATININE [5]: 0.6 mg/dL
- GLUCOSE [5]: 180.67 mg/dL
- PHOSPHORUS [5]: 11.33 mg/dL
- POTASSIUM [5]: 6.43 MEQ/L
- SODIUM [5]: 148.33 MEQ/L
- TOTAL BILIRUBIN [5]: 0.4 mg/dL
- TOTAL PROTEIN [5]: 5.8 G/DL
- BASOPHIL [6]: 0%
- EOSINOPHIL [6]: 0.67%
- ERYTHROCYTE COUNT [6]: 6.09 x10E6/uL
- HEMATOCRIT [6]: 37.37%
- HEMOGLOBIN [6]: 14.97 G/DL
- LEUKOCYTE COUNT [6]: 13.13 x10E3/uL
- LYMPHOCYTE [6]: 81.67%
- MEAN CORPUSCULAR HEMOGLOBIN [6]: 24.6 pg
- MEAN CORPUSCULAR HEMOGLOBIN CONCENTRATION [6]: 40.1 G/DL
- MEAN CORPUSCULAR VOLUME [6]: 61.4 fL
- NEUTROPHIL [6]: 13%
- PLATELET COUNT [6]: 1107.33 x10E3/uL
- ALANINE AMINOTRANSFERASE [6]: 33.33 u/L
- ALBUMIN [6]: 3.8 G/DL
- ALKALINE PHOSPHATASE [6]: 344.67 u/L
- ASPARTATE AMINOTRANSFERASE [6]: 57.33 u/L
- BLOOD UREA NITROGEN [6]: 15.67 mg/dL
- CHLORIDE [6]: 102 MEQ/L
- CHOLESTEROL [6]: 70.33 mg/dL
- CREATINE PHOSPHOKINASE [6]: 148.33 u/L
- CREATININE [6]: 0.53 mg/dL
- GLUCOSE [6]: 178.67 mg/dL
- PHOSPHORUS [6]: 10.7 mg/dL
- POTASSIUM [6]: 6.43 MEQ/L
- SODIUM [6]: 148.33 MEQ/L
- TOTAL BILIRUBIN [6]: 0.47 mg/dL
- TOTAL PROTEIN [6]: 6.07 G/DL
